Read-outs that look alike come from different tables or passages of the source.
Experiments:
Assay type in all cases: biochemical, rice (Oryza sativa var. Kinmaze)
[1] = biological target: T1, GST fusion S627I mutant ALS protein (Oryza sativa subsp. japonica, UniProt Q6K2E8, S627I); assay: Herbicide sensitivity of ALS protein expressed in E. coli (crude enzyme solution), S627I; conditions: for RS ratio: S627I mutant vs wild type
T1 construct: an expression vector having the full-length wild type ALS cDNA incorporated into the Eco RI site of pGEX-2T; made in house; host or cells: E. coli JM109, pGEX 2T(ALS-S627I mutant); crude supernatant
Method: (§1) ALS activity resulting from the mutant ALS protein contained in the eluted fractions apportioned into each test tube for apportioning was measured as follows. A reaction solution to be used in a measurement reaction was prepared by mixing an eluted fraction to be measured with a solution comprising 20 mM sodium pyruvate, 0.5 mM TPP, 0.5 mM MgCl2, 10 μM FAD and 20 mM potassium phosphate buffer (pH 7.5). One ml of this reaction solution was used. After the eluted fraction to be measured was added, the measurement reaction was performed at 30° C. for 40 to 60 minutes. Then, the reaction was stopped by addition of 0.1 ml of 6N sulfuric acid (or 0.25 N sodium hydroxide).
(§2) After the reaction was stopped, the reaction solution was incubated at 60° C. for 10 minutes, thereby converting acetolactate contained in the reaction solution to acetoin.
(§3) Then, to quantify acetoin contained in the reaction solution, 1 ml of 0.5% (w/v) creatine and 1 ml of 5% (w/v) α-naphthol dissolved in 2.5 N sodium hydroxide was added to the reaction solution, followed by incubation at 37° C. for 10 minutes. Acetoin was then quantified by color comparison of the absorbance (at 525 nm) of the reaction solution, thereby evaluating ALS activity. In addition, since the reaction solution contained a small amount of sodium pyruvate, reaction time 0 was used as control.
(§4) E. coli transformed with pGEX-2T(ALS-wild) constructed in Example 3(5), E. coli transformed with pGEX-2T(ALS-W548L mutant) constructed in Example 5, E. coli transformed with pGEX-2T(ALS-S627I mutant) constructed in Example 5, E. coli transformed with pGEX-2T(ALS P171H mutant) constructed in Example 6, E. coli transformed with pGEX-2T(ALS R172S mutant) constructed in Example 6, E. coli transformed with pGEX-2T(ALS P171H, R172S mutant) constructed in Example 7, E. coli transformed with pGEX-2T(ALS-P171H, W548L mutant) constructed in Example 8, E. coli transformed with pGEX-2T(ALS-P171H, S627I mutant) constructed in Example 8, and E. coli transformed with pGEX-2T(ALS-P171H, W548L, S627I mutant) constructed in Example 9 were respectively shake-cultured (pre-culture) at 27° C. in 2 ml of LB liquid medium containing ampicillin. These types of E. coli were respectively cultured in 250 ml of LB liquid medium containing ampicillin using 1 ml of the pre-culture solution. After culturing overnight, 1 mM IPTG was added to the media, and then culturing was performed for a further 3 to 4 hours, so that the expression of GST fusion protein was induced. In addition, the cells were stored at −80° C. after washing.
(§5) Preparation and purification of ALS from E. coli were performed by the following method. First, the pellet of the transformant E. coli stored at −80° C. was suspended in ALS extraction buffer (potassium phosphate buffer (pH 7.5) containing 30% glycerol and 0.5 mM MgCl2). Specifically, 2.5 ml of the buffer was added to the pellet obtained from 50 ml of the culture solution. The suspension was subjected to ultrasonication (Heat Systems-Ultrasonics, Sonicator W-225R, micro chip, output control 8, interval of approximately 1 second, twice (40 seconds each)), and subjected to centrifugation at 15000×g, 4° C. for 20 minutes, thereby obtaining the supernatant as a crude enzyme solution.
(§6) Herbicide sensitivity of the wild type ALS protein and that of mutant ALS protein were examined using the 9 types of crude enzyme solutions obtained in Example 10. Herbicide sensitivity test was performed according to procedures almost the same as those in Example 2. However, in this example, reaction temperature was 37° C., reaction time was 30 minutes, and 10 mM valine was added to the reaction solution to inhibit ALS activity derived from E. coli. Further, three types of herbicides, bispyribac-sodium, pyrithiobac-sodium, and pyriminobac, were used as PC herbicides; chlorsulfuron was used as a sulfonylurea herbicide; and imazaquin was used as an imidazolinon herbicide. […]

[2] = biological target: T2, GST fusion P171H/S627I mutant ALS protein (Oryza sativa subsp. japonica, UniProt Q6K2E8, P171H/S627I); assay: Herbicide sensitivity of ALS protein expressed in E. coli (crude enzyme solution), P171H/S627I; conditions: for RS ratio: P171H/S627I mutant vs wild type; for Predicted RS ratio: product of RS ratios of the 1-point mutants
T2 construct: made in house; host or cells: E. coli, pGEX-2T(ALS-P171H, S627I mutant); crude supernatant
Method: as §1, §2, §3, §4, §5, §6

[3] = biological target: T3, GST fusion P171H/R172S mutant ALS protein (Oryza sativa subsp. japonica, UniProt Q6K2E8, P171H/R172S); assay: Herbicide sensitivity of ALS protein expressed in E. coli (crude enzyme solution), P171H/R172S; conditions: for RS ratio: P171H/R172S mutant vs wild type; for Predicted RS ratio: product of RS ratios of the 1-point mutants
T3 construct: made in house; host or cells: E. coli JM109, pGEX-2T(ALS P171H, R172S mutant); crude supernatant
Method: as §1, §2, §3, §4, §5, §6

[4] = biological target: T4, GST fusion wild type ALS protein (Oryza sativa subsp. japonica, UniProt Q6K2E8); assay: Herbicide sensitivity of ALS protein expressed in E. coli (crude enzyme solution), wild type; conditions: 37° C., 30 minutes, 10 mM valine, read-out: I50
T4 construct: an expression vector having the full-length wild type ALS cDNA incorporated into the Eco RI site of pGEX-2T; made in house; host or cells: E. coli JM109, pGEX-2T(ALS-wild); crude supernatant
Method: as §1, §2
as §3, with “control. […]” for “control.”

[5] = biological target: T5, GST fusion P171H/W548L mutant ALS protein (Oryza sativa subsp. japonica, UniProt Q6K2E8, P171H/W548L); assay: Herbicide sensitivity of ALS protein expressed in E. coli (crude enzyme solution), P171H/W548L; conditions: for RS ratio: P171H/W548L mutant vs wild type; for Predicted RS ratio: product of RS ratios of the 1-point mutants
T5 construct: made in house; host or cells: E. coli, pGEX-2T(ALS-P171H, W548L mutant); crude supernatant
Method: as §1, §2, §3, §4, §5, §6

[6] = biological target: T6, GST fusion P171H mutant ALS protein (Oryza sativa subsp. japonica, UniProt Q6K2E8, P171H); assay: Herbicide sensitivity of ALS protein expressed in E. coli (crude enzyme solution), P171H; conditions: for RS ratio: P171H mutant vs wild type
T6 construct: an expression vector having the full-length wild type ALS cDNA incorporated into the Eco RI site of pGEX-2T; made in house; host or cells: E. coli JM109, pGEX-2T(ALS P171H mutant); crude supernatant
Method: as §1, §2, §3, §4, §5, §6

[7] = biological target: T7, GST fusion R172S mutant ALS protein (Oryza sativa subsp. japonica, UniProt Q6K2E8, R172S); assay: Herbicide sensitivity of ALS protein expressed in E. coli (crude enzyme solution), R172S; conditions: for RS ratio: R172S mutant vs wild type
T7 construct: an expression vector having the full-length wild type ALS cDNA incorporated into the Eco RI site of pGEX-2T; made in house; host or cells: E. coli JM109, pGEX-2T(ALS R172S mutant); crude supernatant
Method: as §1, §2, §3, §4, §5, §6

[8] = biological target: T8, GST fusion W548L mutant ALS protein (Oryza sativa subsp. japonica, UniProt Q6K2E8, W548L); assay: Herbicide sensitivity of ALS protein expressed in E. coli (crude enzyme solution), W548L; conditions: for RS ratio: W548L mutant vs wild type
T8 construct: an expression vector having the full-length wild type ALS cDNA incorporated into the Eco RI site of pGEX-2T; made in house; host or cells: E. coli JM109, pGEX 2T(ALS-W548L mutant); crude supernatant
Method: as §1, §2, §3, §4, §5, §6

T1 sequence (Q6K2E8 44-644 S627I): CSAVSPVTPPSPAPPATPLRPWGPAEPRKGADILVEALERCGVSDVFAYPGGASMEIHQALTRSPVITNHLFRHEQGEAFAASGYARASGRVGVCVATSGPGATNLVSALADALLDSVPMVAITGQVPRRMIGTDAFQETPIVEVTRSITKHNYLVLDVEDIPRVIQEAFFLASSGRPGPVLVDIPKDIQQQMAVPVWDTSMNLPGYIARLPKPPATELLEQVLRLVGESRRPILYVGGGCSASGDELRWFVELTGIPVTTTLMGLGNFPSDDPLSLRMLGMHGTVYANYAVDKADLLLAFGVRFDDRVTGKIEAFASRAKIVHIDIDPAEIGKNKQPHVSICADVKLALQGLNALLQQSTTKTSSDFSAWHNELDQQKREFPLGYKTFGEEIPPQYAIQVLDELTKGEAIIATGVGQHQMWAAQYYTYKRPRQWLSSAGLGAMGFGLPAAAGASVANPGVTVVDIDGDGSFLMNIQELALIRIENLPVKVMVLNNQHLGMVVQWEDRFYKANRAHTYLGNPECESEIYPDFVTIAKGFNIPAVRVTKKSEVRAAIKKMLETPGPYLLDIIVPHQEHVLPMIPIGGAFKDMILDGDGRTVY
T3 sequence (Q6K2E8 44-644 P171H/R172S): as the sequence (Q6K2E8 44-644 S627I) above, with P128H, R129S, I584S counted along it
T6 sequence (Q6K2E8 44-644 P171H): as the sequence (Q6K2E8 44-644 S627I) above, with P128H, I584S counted along it
T7 sequence (Q6K2E8 44-644 R172S): as the sequence (Q6K2E8 44-644 S627I) above, with R129S, I584S counted along it
T5 sequence (Q6K2E8 44-644 P171H/W548L): as the sequence (Q6K2E8 44-644 S627I) above, with P128H, W505L, I584S counted along it
T8 sequence (Q6K2E8 44-644 W548L): as the sequence (Q6K2E8 44-644 S627I) above, with W505L, I584S counted along it
T2 sequence (Q6K2E8 44-644 P171H/S627I): as the sequence (Q6K2E8 44-644 S627I) above, with P128H counted along it
T4 sequence (Q6K2E8 44-644): as the sequence (Q6K2E8 44-644 S627I) above, with I584S counted along it

SMILES | RS ratio [1] | RS ratio/ predicted RS ratio ([2]; P171H/S627I mutant) | RS ratio [2] | Predicted RS ratio ([2]; P171H/S627I mutant) | RS ratio/ predicted RS ratio ([3]; P171H/R172S mutant) | RS ratio [3] | Predicted RS ratio ([3]; P171H/R172S mutant) | RS ratio [5] | Predicted RS ratio ([5]; P171H/W548L mutant) | RS ratio [6] | RS ratio [7] | RS ratio [8] | also measured
CON=C(C)c1cccc(Oc2nc(OC)cc(OC)n2)c1C(=O)O [pyriminobac] | 2800 | >0.93 | >13000 | 14000 | 0.85 | 5.1 | 6 | >13000 | 23000 | 5 | 1.2 | 4500 | IC50 ([1]; S627I mutant, 37° C., 30 minutes, 10 mM valine, read-out: I50): 22000 nM; inhibition % at the highest concentration among the concentrations tested ([2]; P171H/S627I mutant, in 100 μM): 21%; IC50 ([3]; P171H/R172S mutant, 37° C., 30 minutes, 10 mM valine, read-out: I50): 41 nM; IC50 [4]: 8 nM; RS ratio/ predicted RS ratio ([5]; P171H/W548L mutant): >0.57; inhibition % at the highest concentration among the concentrations tested ([5]; P171H/W548L mutant, in 100 μM): 11%; IC50 ([6]; P171H mutant, 37° C., 30 minutes, 10 mM valine, read-out: I50): 40 nM; IC50 ([7]; R172S mutant, 37° C., 30 minutes, 10 mM valine, read-out: I50): 9.2 nM; IC50 ([8]; W548L mutant, 37° C., 30 minutes, 10 mM valine, read-out: I50): 36000 nM
COc1cc(OC)nc(Sc2cccc(Cl)c2C(=O)O)n1 [pyrithiobac-sodium] | 200 | 1.3 | 850 | 680 | 3.8 | 13 | 3.4 | >9100 | >31000 | 3.4 | 1 | >9100 | IC50 [1]: 2200 nM; IC50 [2]: 9400 nM; IC50 [3]: 140 nM; inhibition at 100 µM ([5]; read-out: inhibition % at the highest concentration among the concentrations tested, P171H/W548L mutant, in 100 μM): 20%; IC50 [6]: 37 nM; IC50 [7]: 11 nM; inhibition at 100 µM ([8]; read-out: inhibition % at the highest concentration among the concentrations tested, W548L mutant, in 100 μM): 41%

Source: US8030547B2, “Gene coding for acetolactate synthase” (priority 2002, dated 2011)
